From patent publication US20090131356A1, “miR-15, miR-26, miR-31, miR-145, miR-147, miR-188, miR-215, miR-216, miR-331, mmu-miR-292-3P REGULATED GENES AND PATHWAYS AS TARGETS FOR THERAPEUTIC INTERVENTION” (ASURAGEN, INC., priority 2006, published 2009)

How the values were obtained:
Format in all cases: cell-based, human
H226 lung cancer cells = test: Long-term growth curve with repeated electroporation, H226; settings: 1.6 μM electroporated, repeated on days 6, 17 and 25; day 31; relative to control cells (100%)
Procedure: To evaluate the therapeutic activity of hsa-miR-147 over an extended period of time, the inventors conducted growth curve experiments in the presence of miRNA for up to 31 days in H226 lung cancer cells. Since in vitro transfections of naked interfering RNAs, such as synthetic miRNA, are transient by nature and compromised by the dilution of the oligo during ongoing cell divisions, miRNA was administered at multiple time points (Bartlett et al., 2006; Bartlett et al., 2007). To accommodate miRNA delivery into a large quantity of cells, hsa-miR-147 or negative control miRNA were delivered by the electroporation method. Briefly, 1×10^6 H226 were electroporated in triplicate with 1.6 μM hsa-miR-147 or negative control using the BioRad Gene Pulser Xcell™ instrument (BioRad Laboratories Inc., Hercules, Calif., USA), seeded and propagated in regular growth medium. When the control cells reached confluence (days 6, 17 and 25), cells were harvested, counted and electroporated again with the respective miRNAs. […] The population doubling was calculated from these electroporation events using the formula PD=ln(Nf/N0)/ln2 and adjusting for the fact that approximately 72% of newly seeded cells adhere to the plate. […]

PPC-1 cells = test: Alamar Blue proliferation assay, PPC-1; settings: 30 nM, normalized to negative control miRNA (100% proliferation)
Description: (§1) The inventors assessed the therapeutic effect of hsa-miR-147 for prostate cancer by using 4 individual human prostate cancer cell lines. To measure cellular proliferation of prostate cancer cells, the following prostate cancer cell lines were used: PPC-1 and PC3, derived from a bone metastasis; Du145, derived from a brain metastasis; RWPE2, derived from prostate cells immortalized by human papillomavirus 18 and transformed by the K-RAS oncogene (Bello et al., 1997; Stone et al., 1978; Brothman et al., 1991). PC3, PPC-1, and Du145 cells lack expression of the prostate-specific antigen (PSA) and are independent of androgen receptor (AR) signaling. In contrast, RWPE2 cells test positive for PSA and AR.
(§2) PPC-1, Du145 and RWPE2 cells were transfected with synthetic hsa-miR-147 (Pre-miR™-hsa-miR-147, Ambion cat. no. AM17100) or negative control miRNA (NC; Pre-miR™ microRNA Precursor Molecule-Negative Control #2; Ambion cat. no. AM17111) in a 96-well format using a lipid-based transfection reagent. […] Proliferation was assessed 4-7 days post-transfection using Alamar Blue™ (Invitrogen) following the manufacturer's instructions. […] Fluorescent light units (FLU) were measured after 3 hours, normalized to the control, and plotted as percent change in proliferation. […]

RWPE2 cells = test: Alamar Blue proliferation assay, RWPE2; settings: 30 nM, normalized to negative control miRNA (100% proliferation)
Description: as §1, §2

hsa-miR-147: Synthetic pre-miR-147 (Ambion AM17100; Dharmacon in vivo); mature sequence GUGUGUGGAAAUGCUUCUGC, MIMAT0000251, SEQ ID NO:114 (synthetic pre-miR (Ambion/Dharmacon), chemistry not given here; listed as Homo sapiens)
inhibition of H226 cell growth (H226 lung cancer cells): 90.9%
remaining cells (H226 lung cancer cells): 9.1%
% proliferation (PPC-1 cells): 76.98%
% proliferation (RWPE2 cells): 79.08%
